According to patent US6812246B2, “Aminoflavone compounds, compositions, and methods of use thereof” (The United States of America as represented by the …, priority 2000, dated 2004):
Converted amounts (≈) assume the structure as drawn. Read-outs that look alike come from different tables or passages of the source.

Legend:
[1] = Visual solubility evaluation in buffer at fixed concentration of 5 mg/mL; format: physicochemical; settings: for solubility: aqueous buffer, water solubility determined visually at fixed concentration of 5 mg/mL
Experimental: This Example illustrates the desirable solubility characteristics of the aminoflavone compounds of the present invention. In Table 2 below, the water solubility of compounds 1a-d of Table 1 are set forth at different pH with a citrate or phosphate buffer, as indicated. Solubility was determined visually at a fixed concentration of 5 mg/mL.

[2] = test system: panel of 60 different human tumor cell lines; test: NCI 60 cell-line human tumor screen (sulforhodamine B, 48 hour incubation); format: cell-based; settings: FIG. 1B; several human cancer cell lines, particularly breast (MCF7), ovarian (OVCAR-5), renal (CAKI-1), colon (SW-620)
Experimental: The NCI screen consists of a panel of 60 different human tumor cell lines against which compounds are tested over a defined range of concentrations to determine the relative degree of growth inhibition or cytotoxicity against each cell line. The design and operation of the screen is such that for each compound tested, both the absolute and relative sensitivities of individual cell lines comprising the screen are sufficiently reproducible that a characteristic profile or “fingerprint” of cellular response is generated. Compounds that are active in the NCI screen show pronounced differential tumor growth-inhibitory and/or cytotoxic effects to the diverse cell lines comprising the 60 cell-line panel. The degree of differential response between the most and least sensitive lines typically may be relatively small (e.g., 2-10 fold), or occasionally as great as 3-4 orders of magnitude. […]
In the screening assay, each agent is tested over a broad concentration range against every cell line in the panel. […] Test compounds are evaluated at five 10-fold dilutions. […] Optical densities are measured on automated plate readers, followed by computerized data acquisition, processing, storage, and availability for display-and analysis. […]

[3] = Akama et al., cited from earlier work
[4] = pH 3, citrate buffer, read-out: Visual solubility, pH 3
[5] = pH 5, citrate buffer, read-out: Visual solubility, pH 5
[6] = pH 7, phosphate buffer, read-out: Visual solubility, pH 7
[7] = pH 3, citrate buffer, 5 mg/mL, visual

| solubility [1, 4] | solubility [1, 5] | solubility [1, 6] | solubility at pH 3 (text summary of Table 2) [1, 7] | solubility at pH 5 (text summary of Table 2) ([1]; pH 5, citrate buffer, 5 mg/mL, visual) | SMILES | tumor growth-inhibiting activity (GI50 mean-graph) [2] | solubility in ethanol ([3]; ethanol, J. Med. Chem., at 2067) | solubility in water ([3]; water, J. Med. Chem., 41, 2056-2067 (1998)) |
| --- | --- | --- | --- | --- | --- | --- | --- | --- |
| > 5000 µg/mL | < 5000 µg/mL | < 5000 µg/mL | fully soluble | – | Br.Br.Br.Cc1c(F)c(N)c2c(=O)cc(-c3ccc(NC(=O)C(N)CCCNC(=N)N)c(F)c3)oc2c1F (stereo not shown) [Compound 1b, 5-amino-2-[4-[[2-amino-5-guanidinopentanoyl]amino]-3-fluorophenyl]-6,8-difluoro-7-methyl-4H-1-benzopyran-4-one, trihydrobromide] | – | – | – |
| > 5000 µg/mL | < 5000 µg/mL | < 5000 µg/mL | fully soluble | – | Cc1c(F)c(N)c2c(=O)cc(-c3ccc(NC(=O)[C@@H](N)CCCCN)c(F)c3)oc2c1F [Compound 1a, 5-amino-6,8-difluoro-2-(3-fluoro-4-[(L-lysyl)amino]phenyl]-7-methyl-4H-1-benzopyran-4-one] | demonstrated tumor growth-inhibiting activity | – | – |
| < 5000 µg/mL | < 5000 µg/mL | < 5000 µg/mL | – | – | Cc1c(F)c(N)c2c(=O)cc(-c3ccc(NC(=O)CN(C)C)c(F)c3)oc2c1F [Compound 1c, 5-amino-6,8-difluoro-7-methyl-2-[4-(dimethylamino)acetamido-3-fluorophenyl]-4H-1-benzopyran-4-one] | – | – | – |

Continued, molecule first:

| SMILES | solubility [1, 4] | solubility [1, 5] | solubility [1, 6] | solubility at pH 3 (text summary of Table 2) [1, 7] | solubility at pH 5 (text summary of Table 2) ([1]; pH 5, citrate buffer, 5 mg/mL, visual) | tumor growth-inhibiting activity (GI50 mean-graph) [2] | solubility in ethanol ([3]; ethanol, J. Med. Chem., at 2067) | solubility in water ([3]; water, J. Med. Chem., 41, 2056-2067 (1998)) |
| --- | --- | --- | --- | --- | --- | --- | --- | --- |
| Cc1c(F)c(NC(=O)CN(C)C)c2c(=O)cc(-c3ccc(NC(=O)CN(C)C)c(F)c3)oc2c1F [Compound 1d, 6,8-difluoro-7-methyl-5-(dimethylamino)acetamido-2-[4-(dimethylamino)acetamido-3-fluorophenyl]-4H-1-benzopyran-4-one] | > 5000 µg/mL | > 5000 µg/mL | < 5000 µg/mL | fully soluble | fully soluble | – | – | – |
| Nc1ccc(-c2cc(=O)c3c(N)c(F)cc(F)c3o2)cc1F [5,4′-diamino-6,8,3′-trifluoroflavone] | – | – | – | – | – | – | 1200 µg/mL (≈ 3.92 mM) | less than 0.2 μg/mL |
